Where a SMILES comes first, the peptide text is derived from it. [ ]: non-standard residue; d: D form. The star is where a group is joined. Decanoyl = CCCCCCCCCC(=O)*; Ac6c = NC1(C(=O)O)CCCCC1; Orn = NCCC[C@H](N)C(=O)O
Experiments:
[1] = Human plasma half-life assay (LC-MS); type: in vitro ADME; settings: incubated at 37° C., read-out: Human Plasma T½ (converted)
In short: (§1)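 Aliquots taken from human or rat plasma at time points up to 72 h, quenched with formic acid and acetonitrile, centrifuged. Supernatant analyzed by LC-MS (ESI, positive ion, full scan) on a C8 column with a water/acetonitrile 1% formic acid gradient.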

[2] = target: T1, human recombinant GIP receptor (Homo sapiens, UniProt P48546); assay: In vitro hGIP receptor binding assay ([125I]GIP displacement, CHO-K1 membranes)
T1 construct: expressed in transfected cells; host or cells: CHO-K1 clonal cells (membranes)
T1 sequence (P48546 22-466): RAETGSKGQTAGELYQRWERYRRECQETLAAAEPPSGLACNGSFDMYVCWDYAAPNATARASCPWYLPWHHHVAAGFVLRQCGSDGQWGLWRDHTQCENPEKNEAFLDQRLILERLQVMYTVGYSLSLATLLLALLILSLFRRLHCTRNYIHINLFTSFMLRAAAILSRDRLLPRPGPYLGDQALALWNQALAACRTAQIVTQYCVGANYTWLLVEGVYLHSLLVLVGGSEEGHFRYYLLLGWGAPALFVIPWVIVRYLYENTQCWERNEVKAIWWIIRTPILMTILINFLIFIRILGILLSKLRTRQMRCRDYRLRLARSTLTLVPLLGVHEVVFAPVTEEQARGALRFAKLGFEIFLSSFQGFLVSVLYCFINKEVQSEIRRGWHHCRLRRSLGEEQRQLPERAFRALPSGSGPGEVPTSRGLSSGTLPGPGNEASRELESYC
Text: A. In Vitro hGIP Receptor Binding Assay

[3] = Rat plasma half-life assay (LC-MS); type: in vitro ADME; settings: incubated at 37° C., read-out: Rat Plasma T½ (converted)
In short: as §1

CCCCCCCCCC(=O)NCCC[C@H](NC(=O)[C@H](CCCCN)NC(=O)[C@H](CCCCN)NC(=O)CNC(=O)[C@H](CCCCN)NC(=O)[C@H](CCC(N)=O)NC(=O)[C@H](C)NC(=O)[C@H](CC(C)C)NC(=O)[C@H](CC(C)C)NC(=O)[C@H](Cc1c[nH]c2ccccc12)NC(=O)[C@H](CC(N)=O)NC(=O)[C@@H](NC(=O)[C@H](Cc1ccccc1)NC(=O)[C@H](CC(=O)O)NC(=O)[C@H](CCC(N)=O)NC(=O)[C@H](CCC(N)=O)NC(=O)[C@H](Cc1c[nH]cn1)NC(=O)[C@@H](NC(=O)[C@H](CCCCN)NC(=O)[C@H](CC(=O)O)NC(=O)[C@H](CCSC)NC(=O)[C@H](C)NC(=O)[C@@H](NC(=O)[C@H](CO)NC(=O)[C@H](Cc1ccc(O)cc1)NC(=O)[C@H](CC(=O)O)NC(=O)[C@H](CO)NC(=O)C1(NC(=O)CCCCCCCCC)CCCCC1)[C@@H](C)CC)[C@@H](C)CC)C(C)C)C(=O)N[C@@H](CC(=O)O)C(=O)N[C@@H](Cc1c[nH]c2ccccc12)C(=O)N[C@@H](CCCCN)C(=O)N[C@@H](Cc1c[nH]cn1)C(=O)N[C@@H](CC(N)=O)C(=O)N[C@H](C(=O)N[C@H](C(=O)N[C@@H](CCC(N)=O)C(=O)O)[C@@H](C)O)[C@@H](C)CC [Example 21, [CH3-(CH2)8-C(O)-A6c^7, Orn^34(N-C(O)-(CH2)8-CH3)]hGIP(7-42)-OH] (Decanoyl-[Ac6c]SDYSIAMDKIHQQDFVNWLLAQKGKK[Orn](Decanoyl)DWKHNITQ-OH) showed a half-life at 0.1 mg/mL [1] of 8 h, a Ki [2] of 163 nM and a half-life at 0.1 mg/mL [3] of over 72 h.
Work on CC[C@H](C)[C@H](NC(=O)[C@H](CCCCN)NC(=O)[C@H](CC(=O)O)NC(=O)[C@H](CCSC)NC(=O)C(C)(C)NC(=O)[C@@H](NC(=O)[C@H](CO)NC(=O)[C@H](Cc1ccc(O)cc1)NC(=O)[C@H](CC(=O)O)NC(=O)[C@H](CO)NC(=O)[C@@H](NC(=O)[C@H](Cc1ccccc1)NC(=O)[C@@H](NC(=O)CNC(=O)[C@H](CCC(=O)O)NC(=O)CCc1ccc(O)cc1)[C@@H](C)O)[C@@H](C)CC)[C@@H](C)CC)C(=O)N[C@@H](Cc1c[nH]cn1)C(=O)N[C@@H](CCC(N)=O)C(=O)N[C@@H](CCC(N)=O)C(=O)N[C@@H](CC(=O)O)C(=O)N[C@@H](Cc1ccccc1)C(=O)N[C@H](C(=O)N[C@@H](CC(N)=O)C(=O)N[C@@H](Cc1c[nH]c2ccccc12)C(=O)N[C@@H](CC(C)C)C(=O)N[C@@H](CC(C)C)C(=O)N[C@@H](C)C(=O)N[C@@H](CCC(N)=O)C(=O)N[C@@H](CCCCN)C(=O)NCC(=O)N[C@@H](CCCCN)C(=O)N[C@@H](CCCCN)C(=O)N[C@@H](CC(N)=O)C(=O)N[C@@H](CC(=O)O)C(=O)N[C@@H](Cc1c[nH]c2ccccc12)C(=O)N[C@@H](CCCCN)C(=O)N[C@@H](Cc1c[nH]cn1)C(=O)N[C@@H](CC(N)=O)C(=O)N[C@H](C(=O)N[C@H](C(=O)N[C@@H](CCC(N)=O)C(=O)O)[C@@H](C)O)[C@@H](C)CC)C(C)C [Example 44, (4Hppa^2, Aib^13)hGIP(2-42)-OH)] yielded a half-life at 0.1 mg/mL [1] of 48.8 h and a half-life at 0.1 mg/mL [3] of 9.9 h.
In the case of CC[C@H](C)[C@H](NC(=O)[C@H](CO)NC(=O)[C@H](Cc1ccc(O)cc1)NC(=O)[C@H](CC(=O)O)NC(=O)[C@H](CO)NC(=O)[C@@H](NC(=O)[C@H](Cc1ccccc1)NC(=O)[C@@H](NC(=O)CNC(=O)[C@H](CCC(=O)O)NC(=O)CCc1ccc(O)cc1)[C@@H](C)O)[C@@H](C)CC)C(=O)N[C@@H](C)C(=O)NC1(C(=O)N[C@@H](CC(=O)O)C(=O)N[C@@H](CCCCN)C(=O)N[C@H](C(=O)N[C@@H](Cc2c[nH]cn2)C(=O)N[C@@H](CCC(N)=O)C(=O)N[C@@H](CCC(N)=O)C(=O)N[C@@H](CC(=O)O)C(=O)N[C@@H](Cc2ccccc2)C(=O)N[C@H](C(=O)N[C@@H](CC(N)=O)C(=O)N[C@@H](Cc2c[nH]c3ccccc23)C(=O)N[C@@H](CC(C)C)C(=O)N[C@@H](CC(C)C)C(=O)N[C@@H](C)C(=O)N[C@@H](CCC(N)=O)C(=O)N[C@@H](CCCCN)C(=O)NCC(=O)N[C@@H](CCCCN)C(=O)N[C@@H](CCCCN)C(=O)N[C@@H](CC(N)=O)C(=O)N[C@@H](CC(=O)O)C(=O)N[C@@H](Cc2c[nH]c3ccccc23)C(=O)N[C@@H](CCCCN)C(=O)N[C@@H](Cc2c[nH]cn2)C(=O)N[C@@H](CC(N)=O)C(=O)N[C@H](C(=O)N[C@H](C(=O)N[C@@H](CCC(N)=O)C(=O)O)[C@@H](C)O)[C@@H](C)CC)C(C)C)[C@@H](C)CC)CCCCC1 [Example 45, (4Hppa^2, A6c^14)hGIP(2-42)-OH], the half-life at 0.1 mg/mL [1] is reported as 64.2 h and the half-life at 0.1 mg/mL [3] is reported as 4.3 h.
Work on CC[C@H](C)[C@H](NC(=O)[C@H](CCCCN)NC(=O)[C@H](CC(=O)O)NC(=O)[C@H](CCSC)NC(=O)[C@H](C)NC(=O)[C@@H](NC(=O)C1(NC(=O)[C@H](Cc2ccc(O)cc2)NC(=O)[C@H](CC(=O)O)NC(=O)[C@H](CO)NC(=O)[C@@H](NC(=O)[C@H](Cc2ccccc2)NC(=O)[C@@H](NC(=O)CNC(=O)[C@H](CCC(=O)O)NC(=O)CCc2ccc(O)cc2)[C@@H](C)O)[C@@H](C)CC)CCCCC1)[C@@H](C)CC)C(=O)N[C@@H](Cc1c[nH]cn1)C(=O)N[C@@H](CCC(N)=O)C(=O)N[C@@H](CCC(N)=O)C(=O)N[C@@H](CC(=O)O)C(=O)N[C@@H](Cc1ccccc1)C(=O)N[C@H](C(=O)N[C@@H](CC(N)=O)C(=O)N[C@@H](Cc1c[nH]c2ccccc12)C(=O)N[C@@H](CC(C)C)C(=O)N[C@@H](CC(C)C)C(=O)N[C@@H](C)C(=O)N[C@@H](CCC(N)=O)C(=O)N[C@@H](CCCCN)C(=O)NCC(=O)N[C@@H](CCCCN)C(=O)N[C@@H](CCCCN)C(=O)N[C@@H](CC(N)=O)C(=O)N[C@@H](CC(=O)O)C(=O)N[C@@H](Cc1c[nH]c2ccccc12)C(=O)N[C@@H](CCCCN)C(=O)N[C@@H](Cc1c[nH]cn1)C(=O)N[C@@H](CC(N)=O)C(=O)N[C@H](C(=O)N[C@H](C(=O)N[C@@H](CCC(N)=O)C(=O)O)[C@@H](C)O)[C@@H](C)CC)C(C)C [Example 46, (4Hppa^2, A6c^11)hGIP(2-42)-OH] yielded a half-life at 0.1 mg/mL [1] of 30.8 h and a half-life at 0.1 mg/mL [3] of 11.9 h.

Reference: patent US8450266B2 (Ipsen Pharma S.A.S., priority 2008, dated 2013)
